US4094966A, “Iodobenzene derivatives and X-ray contrast media containing the same” (priority 1974, dated 1978)

Key:
[1] = Biliary clearance test in cats; assay type: in vivo; set-up: scale not given here
Protocol: This test was conducted in male or female adult cats weighing 3-4 kg.
The test material was injected intravenously, at a dosage of 0.10 g/kg iodine at the level of the internal saphenous vein. Clearance of the material was monitored by X-ray control.
X-ray pictures visualizing the gall bladder and the bladder were taken at the following times: 30 minutes, 1 hour, 2 hours, 3 hours, 4 hours, 5 hours, 6 hours.

mice = experiment: Acute toxicity determination, intravenous toxicity in mice; assay type: in vivo, mice (Swiss origin, IOPS mice of OFI strain); details: 24 hours
Protocol: Intravenous toxicity determination was effected in Swiss origin, IOPS mice of OFI strain.
Each dosage level was injected to a lot of 10 mice comprising 5 male and 5 female mice.
Injections were made manually, in the caudal vein, at a rate of 2 ml/minute.
Death rate during the 24 hours after injection was recorded.

femoral artery = experiment: Effect on the femoral rate of flow (peripheral vasodilatation); assay type: in vivo, mongrels
Protocol: This test was carried out in Nembutal-anesthetized male or female 7-12 mongrels.
Nembutal was used at a dosage of 30 mg/kg, with Vetranquil pre-medication, (overall intravenous injection of 2.5 mg), respiration was spontaneous.
Rate of flow variations were recorded at the level of the right or left fermoral artery, by means of a Statham electromagnetic sensor.
The injections were made in a collateral of the fermoral artery, downstream of the sensor, by means of a catheter mounted by the retrograde route, so as not to perturb the blood flow.
The injections were made under a constant volume of 1.5 ml administered within 3-5 seconds.
The same volume of an iostonic sodium chloride solution was also injected.

[2] = Osmolality determination (FISKE osmometer); assay type: physicochemical; details: solutions containing 28% iodine; methylglucamine salts; extrapolation from successive dilutions
Protocol: Osmolality is determined by extrapolation of the values obtained on successive dilutions of solutions containing 28% or 38% iodine.
Osmolality readings are made with a FISKE Model 230/D/330 D osmometer. This apparatus indicates this measurement as milliosmoles per kg of solution. Its operation is based on the principles of cryoscopy. The determinations were made with solutions containing 28% iodine.

[3] = i.v., 0.10 g I/kg, 28% I, Mgl salt
[4] = 1.5 ml into collateral of femoral artery, 28% I, Mgl salt

Row | SMILES | Biliary clearance in cat, i.v. [1, 3] | Acute toxicity in mice, i.v. (mice; 28% I, Mgl salt) [grams I/kg] | Peripheral vasodilatation, femoral rate of flow (femoral artery; [4]) | Osmolality [2] [mosm/kg] | also measured
1 | CNC(=O)c1c(I)c(NC(=O)CCCNC(=O)c2c(I)c(C(=O)NCCO)c(I)c(N(C)C(C)=O)c2I)c(I)c(C(=O)O)c1I [Compound 7, 2,4,6-triiodo-3-N-methylcarbamyl-5-(2,4,6-triiodo-3-N-hydroxyethylcarbamyl-5-N-methylacetamido-benzoyl)γ-aminobutyrylamino-benzoic acid] | 0 | 5 | ++ | 525 | –
2 | CNC(=O)c1c(I)c(C(=O)NCCCCCC(=O)Nc2c(I)cc(I)c(C(=O)O)c2I)c(I)c(N(C)C(C)=O)c1I [Compound 10, 2,4,6-triiodo-5-(2,4,6-triiodo-3-N-methylcarbamyl-5-N-methylacetamido-benzoyl)-ε-aminocaproylamino-benzoic acid] | ++++ | 1.5 | ++++ | 420 | –
3 | CNC(=O)c1c(I)c(NC(=O)CCCNC(=O)c2c(I)cc(I)c(N(C)C(C)=O)c2I)c(I)c(C(=O)O)c1I [Compound 11, 2,4,6-triiodo-3-N-methylcarbamyl-5-(2,4,6-triiodo-3-N-methylacetamido-benzoyl)-γ-aminobutyrylaminobenzoic acid] | +++ | 2.3 | ++++ | 390 | –
4 | CNC(=O)c1c(I)c(NC(=O)CNC(=O)c2c(I)c(NC(=O)CNC(=O)c3c(I)c(NC(C)=O)c(I)c(C(=O)NC)c3I)c(I)c(N(C)C(C)=O)c2I)c(I)c(C(=O)O)c1I [Compound 16, 2,4,6-triiodo-3-N-methylcarbamyl-5-[2,4,6-triiodo-3-N-methylacetamido-5-(2,4,6-triiodo-3-N-methylcarbamyl-5-acetamido-benzoyl)glycylamino-benzoyl]-glycylamino-benzoic acid] | – | – | – | 250 | Biliary clearance in cat, i.v. ([1]; in vivo, iv): 0; Peripheral vasodilatation, femoral rate of flow (femoral artery; in vivo): +
5 | CNC(=O)c1c(I)c(NC(=O)CNC(=O)c2c(I)c(NC(=O)CNC(=O)c3c(I)c(C(=O)NC)c(I)c(N(C)C(C)=O)c3I)c(I)c(N(C)C(C)=O)c2I)c(I)c(C(=O)O)c1I [Compound 17, 2,4,6-triiodo-3-N-methylcarbamyl-5-[2,4,6-triiodo-3-N-methylacetamido-5-(2,4,6-triiodo-3-N-methylcarbamyl-5-N-methylacetamido-benzoyl)glycyl-aminobenzoyl]-glycyl-amino-benzoic acid] | – | – | – | 200 | Biliary clearance in cat, i.v. ([1]; in vivo, iv): 0; Peripheral vasodilatation, femoral rate of flow (femoral artery; in vivo): ++
6 | CNC(=O)c1c(I)c(NC(=O)CNC(=O)c2c(I)cc(I)c(N(C)C(C)=O)c2I)c(I)c(C(=O)O)c1I [Compound 18, 2,4,6-triiodo-3-N-methylcarbamyl-5-(2,4,6-triiodo-3-N-methylacetamido-benzoyl-glycyl)-amino-benzoic acid] | ++++ | – | ++++ | 390 | –
7 | CNC(=O)c1c(I)c(C(=O)NCC(=O)Nc2c(I)cc(I)c(C(=O)O)c2I)c(I)c(N(C)C(C)=O)c1I [Compound 19, 2,4,6-triiodo-5-(2,4,6-triiodo-3-N-methylcarbamyl-5-N-methylacetamido-benzoyl) glycylamino-benzoic acid] | ++++ | 4 | ++++ | 500 | –
8 | CC(=O)Nc1c(I)c(NC(=O)CNC(=O)c2c(I)c(NC(C)=O)c(I)c(N(C)C(C)=O)c2I)c(I)c(C(=O)O)c1I [Compound 20, 2,4,6-triiodo-3-acetamido-5-(2,4,6-triiodo-3-N-methylacetamido-5-acetamido-benzoyl)-glycylaino-benzoic acid] | – | – | – | 755 | Acute toxicity in mice, i.v. (mice; 28 and 38% I, Na salt): 7.5 grams I/kg; Peripheral vasodilatation, femoral rate of flow (femoral artery; 1.5 ml into collateral of femoral artery, 28 and 38% I, Na salt): +
9 | CNC(=O)c1c(I)c(NC(C)=O)c(I)c(C(=O)NCC(=O)N(C)c2c(I)cc(I)c(C(=O)O)c2I)c1I [Compound 21, 2,4,6-triiodo-3-(2,4,6-triiodo-3-N-methylcarbamyl-5-acetamido-benzoyl)glycyl-N-methylamino-benzoic acid] | – | – | – | 580 | Biliary clearance in cat, i.v. ([1]; i.v., 0.10 g I/kg, 20% I, Mgl salt): +++; Acute toxicity in mice, i.v. (mice; 20% I, Mgl salt): 4-5 grams I/kg; Peripheral vasodilatation, femoral rate of flow (femoral artery; 1.5 ml into collateral of femoral artery, 20% I, Mgl salt): ++++
10 | CNC(=O)c1c(I)c(C(=O)NC(C)C(=O)Nc2c(I)cc(I)c(C(=O)O)c2I)c(I)c(N(C)C(C)=O)c1I (stereo not drawn) [Compound 23, 2,4,6-triiodo-3-(2,4,6-triiodo-3-N-methyl-carbamyl-5-N-methylacetamido-benzoyl)-α-aminoproionylamino-benzoic acid] | ++++ | 3.5 | +++ | 535 | –
11 | CNC(=O)c1c(I)c(C(=O)NCC(=O)Nc2c(I)c(NC(C)=O)c(I)c(C(=O)O)c2I)c(I)c(N(C)C(C)=O)c1I [Compound 25, 2,4,6-triiodo-3-acetamido-5-(2,4,6-triiodo-3-N-methylcarbamyl-5-N-methylacetamido-benzoyl)glycylamino-benzoic acid] | – | – | – | 925 | Biliary clearance in cat, i.v. ([1]; i.v., 0.10 g I/kg, 34% I, Na salt): 0; Acute toxicity in mice, i.v. (mice; 34% I, Na salt): 9 grams I/kg; Peripheral vasodilatation, femoral rate of flow (femoral artery; 1.5 ml into collateral of femoral artery, 34% I, Na salt): ++
12 | CNC(=O)c1c(I)c(NC(C)=O)c(I)c(C(=O)NCC(=O)Nc2c(I)c(C(=O)O)c(I)c(N(C)C(C)=O)c2I)c1I [Compound 26, 12,4,6-triiodo-3-N-methylacetamido-5-(2,4,6-triiodo-3-N-methylcarbamyl-5-acetamido-benzoyl)-glycylamino-benzoic acid] | – | – | – | 500 | Biliary clearance in cat, i.v. ([1]; i.v., 0.10 g I/kg, 38% I, Na salt): 0; Acute toxicity in mice, i.v. (mice; 38% I, Na salt): 13 grams I/kg; Peripheral vasodilatation, femoral rate of flow (femoral artery; 1.5 ml into collateral of femoral artery, 38% I, Na salt): ++
13 | CNC(=O)c1c(I)c(NC(=O)CNC(=O)c2c(I)c(NC(=O)C(O)C(O)C(O)C(O)CO)c(I)c(C(=O)NC)c2I)c(I)c(C(=O)O)c1I (stereo not shown) [Compound 35, 2,4,6-triiodo-3-N-methylcarbamyl-5-(2,4,6-triiodo-3-N-methylcarbamyl-5-gluconylamino-benzoyl)glycylamino-benzoic acid] | 0 | 8 | + | – | –
14 | CNC(=O)c1c(I)c(NC(=O)C(O)C(O)C(O)C(O)CO)c(I)c(C(=O)NCC(=O)Nc2c(I)c(C(=O)O)c(I)c(C(=O)NCCO)c2I)c1I (stereo not shown) [Compound 36, 2,4,6-triiodo-3-hydroxyethylcarbamyl-5-(2,4,6-triiodo-3-N-methylcarbamyl-5-glyconylamino-benzoyl) glycylamino-benzoic acid] | 0 | 8 | ++ | – | –
15 | CNC(=O)c1c(I)c(C(=O)NCCCC(=O)N(C)c2c(I)c(C(=O)O)c(I)c(C(=O)NC)c2I)c(I)c(N(C)C(C)=O)c1I [Compound 37, 2,4,6-triiodo-3-N-methylcarbamyl-5-(2,4,6-triiodo-3-N-methylcarbamyl-5-N-methylacetamido-benzoyl)-γ-aminobutyryl-N-methylamino-benzoic acid] | ++ | < 6 | ++++ | 730 | –
16 | CNC(=O)c1c(I)c(NC(C)=O)c(I)c(C(=O)NCC(=O)N(C)c2c(I)c(C(=O)O)c(I)c(C(=O)NCCO)c2I)c1I [Compound 38, 2,4,6-triiodo-3-N-hydroxyethylcarbamyl-5-(2,4,6-triiodo-3-N-methylcarbamyl-5-acetamido-benzoyl)-glycyl-N-methylamino-benzoic acid] | – | – | – | 635 | –
17 | CC(=O)Nc1c(I)c(NC(C)=O)c(I)c(C(=O)O)c1I [d, 2,4,6-Triiodo-3,5-bis-(acetamido)-benzoic acid, reference compound] | – | – | – | – | Biliary clearance in cat, i.v. ([1]; i.v., 0.10 g I/kg, 38% I, mixed Mgl and Na salt): 0; Acute toxicity in mice, i.v. (mice; 38% I, mixed Mgl and Na salt): 5.7 grams I/kg; Peripheral vasodilatation, femoral rate of flow (femoral artery; in vivo): +++
18 | O=C(CCCCC(=O)Nc1c(I)cc(I)c(C(=O)O)c1I)Nc1c(I)cc(I)c(C(=O)O)c1I [e, 3,3'-Adipoyldiimino-bis(2,4,6-triiodobenzoic) acid, reference compound] | – | 2 | ++++ | – | Biliary clearance in cat, i.v. ([1]; in vivo, iv): ++++
